Source: ChEMBL document CHEMBL1201862, “PubChem BioAssay data set” (2004)
Calls of active or inactive are those of the source.

Assays:
[1] = cells; format: functional, cell-based
[2] = cells; format: functional, cell-based; remark: listed apart in the source
[3] = target: T1, Ubiquitin-conjugating enzyme E2 N (Homo sapiens, UniProt P61088); format: functional;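 further: Dose-response confirmation in a TR-FRET assay detecting UBC13-driven polyubiquitin chain formation, inhibition measured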
T1 sequence (P61088 whole entry): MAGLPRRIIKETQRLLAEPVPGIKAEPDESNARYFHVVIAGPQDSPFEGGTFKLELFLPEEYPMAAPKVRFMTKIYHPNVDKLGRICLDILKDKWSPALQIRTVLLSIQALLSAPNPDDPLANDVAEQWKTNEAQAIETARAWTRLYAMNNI

[4] = cells; format: functional
[5] = test system: BJ; assay: cytotoxicity toward BJ-TERT fibroblasts, dose response, cell-based, RAS-independent, luminescence (AID 1933); format: functional; settings: Homo sapiens
[6] = test system: BJ; assay: cells; format: functional, cell-based; settings: Homo sapiens
[7] = cytotoxicity toward DRD oncogenic fibroblasts, dose response, cell-based, non-viral oncogenic, luminescence (AID 1934); format: functional; settings: Homo sapiens
[8] = target: Paired box protein Pax-8 (Homo sapiens, UniProt Q06710); assay: inhibitors of PAX8-driven TPO luciferase reporter, dose response, RMG-I cells, cherry-pick (AID 687027); format: functional, cell-based;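 further: luciferase reporter driven by Pax8 target thyroperoxidase promoter measured by SteadyGlo luminescence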
[9] = target: Large T antigen (Simian virus 40, UniProt P03070); format: functional, Betapolyomavirus macacae;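 further: Confirmatory-stage PubChem screen for compounds that inhibit SV40 T antigen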
[10] = HEp-2 cell cytotoxicity, dose response, cytotoxicity control for RSV inhibitor project, HTS (AID 2410); format: functional; settings: human respiratory syncytial virus
[11] = target: Luciferin 4-monooxygenase (Photinus pyralis, UniProt P08659); assay: firefly luciferase enzyme inhibitors, dose response, biochemical, luminescence (AID 1891)
[12] = Luminescence Cell-Based Dose Confirmation HTS to Identify Inhibitors of Platelet Dense Granule Release. [Related pubchem assays: 1663 (Primary HTS), 1678 (Summary of Project)]; format: functional
[13] = growth suppression of PTEN-null colon cells, dose response, cell-based, HCT116 PTEN knockout (AID 1047); format: functional;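 further: HCT116 colon tumor cells with PTEN knocked out; cells exposed to compound for 60 hours before readout; potency for loss of cell viability measured by luminescence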
[14] = growth suppression of beta-catenin-knockout colon cells, dose response, cell-based, HCT116, human colon tumor (AID 1045); format: functional;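 further: HCT116 colon tumor cells with beta catenin knocked out; cells exposed to compound for 60 hours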
[15] = target: Glyceraldehyde-3-phosphate dehydrogenase (Homo sapiens, UniProt P04406)
Sequence of Glyceraldehyde-3-phosphate dehydrogenase (P04406 whole entry): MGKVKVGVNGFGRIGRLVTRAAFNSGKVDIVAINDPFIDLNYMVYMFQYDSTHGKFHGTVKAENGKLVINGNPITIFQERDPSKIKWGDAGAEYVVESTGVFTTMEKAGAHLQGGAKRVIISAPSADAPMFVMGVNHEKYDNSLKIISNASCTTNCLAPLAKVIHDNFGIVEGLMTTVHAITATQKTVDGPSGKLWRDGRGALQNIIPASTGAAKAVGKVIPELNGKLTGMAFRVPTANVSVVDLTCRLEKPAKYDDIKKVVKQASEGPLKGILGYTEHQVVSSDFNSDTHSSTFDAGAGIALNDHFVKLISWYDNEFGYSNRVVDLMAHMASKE

Sequence of Large T antigen (P03070 whole entry): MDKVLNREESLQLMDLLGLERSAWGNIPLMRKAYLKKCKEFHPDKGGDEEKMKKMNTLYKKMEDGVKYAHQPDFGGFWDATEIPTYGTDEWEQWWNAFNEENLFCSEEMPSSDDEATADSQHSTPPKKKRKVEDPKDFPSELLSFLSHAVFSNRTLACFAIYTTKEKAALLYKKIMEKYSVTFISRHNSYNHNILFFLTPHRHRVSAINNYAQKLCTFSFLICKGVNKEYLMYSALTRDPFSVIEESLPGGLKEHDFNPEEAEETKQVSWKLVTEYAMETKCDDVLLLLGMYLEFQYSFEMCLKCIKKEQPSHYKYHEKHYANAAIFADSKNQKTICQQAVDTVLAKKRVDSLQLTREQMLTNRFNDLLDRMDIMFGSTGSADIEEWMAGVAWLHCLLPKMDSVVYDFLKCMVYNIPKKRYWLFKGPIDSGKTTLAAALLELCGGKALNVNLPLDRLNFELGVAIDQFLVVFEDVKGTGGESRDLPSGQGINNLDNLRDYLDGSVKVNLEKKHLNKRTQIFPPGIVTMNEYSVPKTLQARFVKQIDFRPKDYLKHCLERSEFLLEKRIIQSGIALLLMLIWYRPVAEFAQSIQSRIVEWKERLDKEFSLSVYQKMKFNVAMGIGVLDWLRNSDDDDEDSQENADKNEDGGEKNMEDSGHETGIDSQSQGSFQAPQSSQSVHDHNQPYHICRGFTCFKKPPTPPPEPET
Sequence of Luciferin 4-monooxygenase (P08659 whole entry): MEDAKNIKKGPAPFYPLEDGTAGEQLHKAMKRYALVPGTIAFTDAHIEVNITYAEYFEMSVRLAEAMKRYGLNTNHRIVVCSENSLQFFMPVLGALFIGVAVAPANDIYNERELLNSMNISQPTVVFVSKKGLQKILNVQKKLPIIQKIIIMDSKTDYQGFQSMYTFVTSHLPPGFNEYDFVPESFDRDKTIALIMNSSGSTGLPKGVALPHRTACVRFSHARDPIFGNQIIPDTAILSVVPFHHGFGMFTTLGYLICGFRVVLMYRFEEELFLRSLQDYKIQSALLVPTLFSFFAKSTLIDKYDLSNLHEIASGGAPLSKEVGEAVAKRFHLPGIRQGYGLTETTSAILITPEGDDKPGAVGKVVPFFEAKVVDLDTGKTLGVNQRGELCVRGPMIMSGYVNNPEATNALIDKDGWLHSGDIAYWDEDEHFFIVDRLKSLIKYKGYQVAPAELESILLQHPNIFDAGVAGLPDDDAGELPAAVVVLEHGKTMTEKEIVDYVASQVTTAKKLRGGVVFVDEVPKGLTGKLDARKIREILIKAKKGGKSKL
Sequence of Paired box protein Pax-8 (Q06710 whole entry): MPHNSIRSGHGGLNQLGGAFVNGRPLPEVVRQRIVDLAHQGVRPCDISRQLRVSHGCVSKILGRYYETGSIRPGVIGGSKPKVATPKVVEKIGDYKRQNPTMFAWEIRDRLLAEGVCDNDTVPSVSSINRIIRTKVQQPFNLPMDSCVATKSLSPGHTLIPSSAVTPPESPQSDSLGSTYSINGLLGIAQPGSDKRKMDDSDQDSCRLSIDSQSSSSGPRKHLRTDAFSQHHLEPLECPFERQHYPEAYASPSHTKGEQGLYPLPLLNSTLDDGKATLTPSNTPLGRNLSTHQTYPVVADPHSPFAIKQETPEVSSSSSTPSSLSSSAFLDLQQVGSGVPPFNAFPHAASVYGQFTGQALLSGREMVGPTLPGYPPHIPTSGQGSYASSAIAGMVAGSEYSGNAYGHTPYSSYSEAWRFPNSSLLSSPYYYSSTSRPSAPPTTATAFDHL

Compound: CC(C)NC(=O)NC(=O)CSc1nnc(-c2ccccc2F)n1N
- EC50 [1]: > 350 µM (not active)
- EC50 [2]: > 350 µM (not active)

Compound: CN(C)CCCN(C(=O)c1ccc(S(=O)(=O)N2CCCC2)cc1)c1nc2ccc(Br)cc2s1
- IC50 [3]: > 20 µM (inactive)

Compound: Cc1cc(NC(=O)COC(=O)COc2ccc(C(=O)c3ccccc3)cc2)no1
- IC50 [4]: 21.2 µM (active)

Compound: COc1ccc(C(=O)NN(C)c2nc(C(F)(F)F)nc3ccccc23)cc1
- EC50 [5]: < 0.12 µM (active)
- EC50 [6]: 0.45 µM (active)
- EC50 [7]: < 0.12 µM (active)
- AC50 [8]: 1.79 µM (active)

Compound: O=C1CCCN1CCCNC(=S)Nc1ccc(Nc2ccccc2)cc1
- IC50 [9]: 18.7 µM (active)

Compound: CCN(CC)c1ccc(NC(=O)COC(=O)c2ccc3ccccc3n2)cc1
- IC50 [9]: 48.2 µM (active)

Compound: COc1ccc(C[C@H]2CN3C(=NC[C@@H]3Cc3ccccc3)N2CCNC(=O)c2ccc(C)c(Br)c2)cc1
- IC50 [3]: > 20 µM (inactive)

Compound: CCOC(=O)C1=C(C)N=C(C)/C(=C(/O)OCC)C1C(=O)OCC(=O)N(C)C1CCS(=O)(=O)C1 (stereo not drawn)
- EC50 [1]: > 350 µM (not active)
- EC50 [2]: > 350 µM (not active)

Compound: Cc1ccc(N(C)S(=O)(=O)c2ccc(-c3cc(C)no3)s2)cc1
- EC50 [1]: > 350 µM (not active)
- EC50 [2]: > 350 µM (not active)

Compound: CC(C)C1Cc2c(sc3c2c(=O)n(-c2ccccc2)c2n[nH]c(=S)n32)CO1 (stereo not drawn)
- IC50 [9]: 29.5 µM (active)

Compound: Cc1c(C(=O)Nc2ccc(S(=O)(=O)N(C)C3CCN(C)CC3)cc2)oc2ccccc12
- CC50 [10]: 17.2 µM (active)
- IC50 [3]: > 20 µM (inactive)

Compound: Cc1cccc(C(=N)NOC(=O)c2ccoc2C)c1
- EC50 [1]: > 350 µM (not active)
- EC50 [11]: 3.65 µM (active)
- EC50 [12]: 3.25 µM (active)
- EC50 [2]: 7.1 µM (active)

Compound: CC(=O)c1ccc(OCC(=O)Nc2ccc3c(c2)CCC3)cc1
- IC50 [4]: > 50 µM (active)

Compound: O=C(NC1CCCCC1)C(c1ccccc1F)N(Cc1ccco1)C(=O)Cn1nnc2ccccc21 (stereo not drawn)
- EC50 [13]: 16 µM (active)
- EC50 [14]: 16 µM (active)

Compound: COc1cc(/C=C2\C(=N)N3N=C(CC(=O)N4CCCCC4)SC3=NC2=O)ccc1O
- IC50 [9]: 22.5 µM (active)

Compound: CCOc1ccc(NCc2cccn2-c2nnc(N3CCC(C(=O)NCCCN4CCCCC4CC)CC3)s2)cc1 (stereo not drawn)
- IC50 [9]: 11.7 µM (active)

Compound: O=C(O)Cc1csc(COc2ccccc2)n1
- IC50 [15]: > 100 µM (not active)
